According to patent publication US11230538B2, “Herbicides” (SYNGENTA PARTICIPATIONS AG, priority 2016, dated 2022):

Experiments:
Format in all cases: in vivo
[1] = tested on: Lolium perenne (LOLPE); assay: B2 Post-emergence herbicidal activity; settings: post-emergence application, rate 1000 g/ha, evaluated after 13 days
Outline: (§1)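 Test seeds are sown in standard soil and raised for 8 days under controlled glasshouse conditions (24/16 °C, 14 h light, 65% humidity). Foliage is then sprayed with compound formulated in 50:50 acetone/water plus 0.5% Tween 20, and plants are rated 0–5 for damage after 13 days.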

[2] = tested on: Triticum aestivium (TRZAW); assay: B1 Pre-emergence herbicidal activity; parameters: key: 5=total damage to plant; 0=no damage to plant; settings: pre-emergence application, rate 1000 g/ha, evaluated after 13 days
Outline: (§2)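 Sow in soil → 1 d glasshouse (24/16 °C, 14 h light, 65% RH) → spray pre-emergence (acetone/water 50:50, 0.5% Tween 20) → grow 13 d, water twice daily → score 0–5 (5 = total damage).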

[3] = tested on: Alopecurus myosuroides (ALOMY); assay: B1 Pre-emergence herbicidal activity; parameters: key: 5=total damage to plant; 0=no damage to plant; settings: pre-emergence application, rate 1000 g/ha, evaluated after 13 days
Outline: as §2

[4] = tested on: Avena fatua (AVEFA); assay: B1 Pre-emergence herbicidal activity; parameters: key: 5=total damage to plant; 0=no damage to plant; settings: pre-emergence application, rate 1000 g/ha, evaluated after 13 days
Outline: as §2

[5] = tested on: Setaria fabenr (SETFA); assay: B1 Pre-emergence herbicidal activity; parameters: key to Pre-emergence herbicidal activity, SETFA (damage score 0-5): 5=total damage to plant; 0=no damage to plant; settings: pre-emergence application, rate 1000 g/ha, evaluated after 13 days
Outline: as §2

[6] = tested on: Echinochloa crus-galli (ECHCG); assay: B1 Pre-emergence herbicidal activity; parameters: key to Pre-emergence herbicidal activity, ECHCG (damage score 0-5): 5=total damage to plant; 0=no damage to plant; settings: pre-emergence application, rate 1000 g/ha, evaluated after 13 days
Outline: as §2

[7] = tested on: Echinochloa crus-galli (ECHCG); assay: B2 Post-emergence herbicidal activity; parameters: key to Post-emergence herbicidal activity, ECHCG (damage score 0-5): 5=total damage to plant; 0=no damage to plant; settings: post-emergence application, rate 1000 g/ha, evaluated after 13 days
Outline: as §1

[8] = tested on: Avena fatua (AVEFA); assay: B2 Post-emergence herbicidal activity; settings: post-emergence application, rate 1000 g/ha, evaluated after 13 days
Outline: as §1

[9] = tested on: Lolium perenne (LOLPE); assay: B1 Pre-emergence herbicidal activity; parameters: key to Pre-emergence herbicidal activity, LOLPE (damage score 0-5): 5=total damage to plant; 0=no damage to plant; settings: pre-emergence application, rate 1000 g/ha, evaluated after 13 days
Outline: as §2

[10] = tested on: Triticum aestivium (TRZAW); assay: B2 Post-emergence herbicidal activity; parameters: key: 5=total damage to plant; 0=no damage to plant; settings: post-emergence application, rate 1000 g/ha, evaluated after 13 days
Outline: as §1

[11] = tested on: Alopecurus myosuroides (ALOMY); assay: B2 Post-emergence herbicidal activity; parameters: key: 5=total damage to plant; 0=no damage to plant; settings: post-emergence application, rate 1000 g/ha, evaluated after 13 days
Outline: as §1

[12] = tested on: Setaria fabenri (SETFA); assay: B2 Post-emergence herbicidal activity; parameters: key: 5=total damage to plant; 0=no damage to plant; settings: post-emergence application, rate 1000 g/ha, evaluated after 13 days
Outline: as §1

| SMILES | Post-emergence herbicidal activity, LOLPE (damage score 0-5) [1] | Pre-emergence herbicidal activity, TRAZW (damage score 0-5) [2] | Pre-emergence herbicidal activity, ALOMY (damage score 0-5) [3] | Pre-emergence herbicidal activity, AVEFA (damage score 0-5) [4] | Pre-emergence herbicidal activity, SETFA (damage score 0-5) [5] | Pre-emergence herbicidal activity, ECHCG (damage score 0-5) [6] | Post-emergence herbicidal activity, ECHCG (damage score 0-5) [7] | Post-emergence herbicidal activity, AVEFA (damage score 0-5) [8] | Pre-emergence herbicidal activity, LOLPE (damage score 0-5) [9] | Post-emergence herbicidal activity, TRAZW (damage score 0-5) [10] | Post-emergence herbicidal activity, ALOMY (damage score 0-5) [11] | Post-emergence herbicidal activity, SETFA (damage score 0-5) [12] |
| --- | --- | --- | --- | --- | --- | --- | --- | --- | --- | --- | --- | --- |
| O=C1CCC(=O)N1c1ccc(-c2cncc(F)c2)nc1C(F)(F)F [Compound C67, 1-[6-(5-fluoro-3-pyridyl)-2-(trifluoromethyl)-3-pyridyl]pyrrolidine-2,5-dione] | 2 | 0 | 0 | 0 | 2 | 1 | 4 | 2 | 0 | 0 | 0 | 4 |
| O=C(c1ccccc1)N(CC1CC1)c1ccc(-c2cncc(F)c2)nc1C(F)(F)F [Compound C103] | 1 | 0 | 0 | 0 | 1 | 0 | 1 | 2 | 0 | 0 | 0 | 2 |
| CC(C)=CC(=O)N(C(=O)C=C(C)C)c1ccc(-c2cncc(F)c2)nc1C(F)(F)F [Compound C38] | 2 | 0 | 0 | 0 | 5 | 4 | 4 | 3 | 0 | 0 | 0 | 5 |
| C#CCN(C(=O)CC)c1ccc(-c2cncc(F)c2)nc1C(F)(F)F [Compound C94] | 2 | 0 | 0 | 1 | 5 | 2 | 4 | 2 | 1 | 0 | 0 | 5 |
| CC(=O)N(C(C)=O)c1ccc(-c2cncnc2)nc1C(F)(F)F [Compound C6] | 4 | 1 | 1 | 4 | 4 | 4 | 4 | 4 | 2 | 1 | 1 | 5 |
| CC(C)C(=O)N(c1ccc(-c2cncc(F)c2)nc1C(F)(F)F)C(C)C [Compound C90] | 1 | 0 | 0 | 0 | 2 | 2 | 4 | 2 | 0 | 1 | 0 | 4 |
| O=C(Nc1ccc(-c2cncnc2)nc1C(F)(F)F)C(Cl)Cl [Compound C65] | 3 | 0 | 0 | 3 | 3 | 4 | 5 | 4 | 2 | 0 | 0 | 5 |
| Cc1ccsc1C(=O)Nc1ccc(-c2cncc(F)c2)nc1C(F)(F)F [Compound C51] | 1 | 0 | 0 | 0 | 4 | 3 | 2 | 2 | 0 | 0 | 0 | 4 |
| COCC(=O)Nc1ccc(-c2cncc(F)c2)nc1C#N [Compound C114, N-[2-cyano-6-(5-fluoro-3-pyridyl)-3-pyridyl]-2-methoxy-acetamide] | 1 | 0 | 0 | 1 | 5 | 4 | 4 | 2 | 0 | 1 | 1 | 5 |
| O=C(CCC1CCCC1)Nc1ccc(-c2cncc(F)c2)nc1C(F)(F)F [Compound C53] | 4 | 0 | 1 | 3 | 4 | 5 | 5 | 4 | 1 | 1 | 0 | 5 |
| CSCCN(C(=O)C(C)C)c1ccc(-c2cncc(F)c2)nc1C(F)(F)F [Compound C88] | 1 | 0 | 0 | 0 | 2 | 1 | 1 | 1 | 0 | 1 | 1 | 2 |
| O=C(Nc1ccc(-c2cncnc2)nc1C(F)(F)F)C1CC1 [Compound C109] | 2 | 0 | 0 | 2 | 4 | 4 | 5 | 3 | 1 | 1 | 0 | 5 |
